Reference: PMC4303209, “A novel phosphatidylinositol 3-kinase (PI3K) inhibitor directs a potent FOXO-dependent, p53-independent cell cycle arrest phenotype characterized by the differential induction of a subset of FOXO-regulated genes” (Breast Cancer Research : BCR, 2014)

Tested on: MCF-7 breast cancer cells
Experiment: Microarray gene expression analysis (Agilent whole human genome 4 x 44K; compound vs DMSO, LIMMA log2 fold change)
Type: cell-based
Settings: Apoptosis genes

Cn1ncc2c(N3CCOCC3)nc(-c3cccc(O)c3)nc21 [ETP-45658]
PML log2FC (Gene 5371): -0.804
POLR2G log2FC (Gene 5436): 0.335
POU3F3 log2FC (Gene 5455): -0.318
POU4F1 log2FC (Gene 5457): -0.504
POU4F3 log2FC (Gene 5459): -0.263
PPARD log2FC (Gene 5467): -0.520
PPARG log2FC (Gene 5468): -0.185
PPID log2FC (Gene 5481): 0.248
PPP1CA log2FC (Gene 5499): -0.227
PPP2CA log2FC (Gene 5515): -0.322
PPP2CB log2FC (Gene 5516): -0.242
PPP2R1B log2FC (Gene 5519): -0.532
PPP2R2B log2FC (Gene 5521): 0.082
PPP2R4 log2FC (Gene 5524): -0.446
PPP2R5C log2FC (Gene 5527): 0.888
PPP3CC log2FC (Gene 5533): 0.163
PPP3R1 log2FC (Gene 5534): -0.308
PPT1 log2FC (Gene 5538): 0.432
PRF1 log2FC (Gene 5551): -0.050
PRKAA1 log2FC (Gene 5562): 0.429
PRKAA2 log2FC (Gene 5563): 0.082
PRKCA log2FC (Gene 5578): -0.217
PRKCD log2FC (Gene 5580): -0.079
PRKCE log2FC (Gene 5581): -0.042
PRKCG log2FC (Gene 5582): -0.093
PRKCH log2FC (Gene 5583): -0.256
PRKCI log2FC (Gene 5584): 0.583
PKN2 log2FC (Gene 5586): 0.510
PRKD1 log2FC (Gene 5587): 0.494
PRKCQ log2FC (Gene 5588): 0.132
PRKCZ log2FC (Gene 5590): 0.430
PRKDC log2FC (Gene 5591): 0.131
MAPK3 log2FC (Gene 5595): -0.190
MAPK7 log2FC (Gene 5598): -0.336
MAP2K6 log2FC (Gene 5608): 0.116
PRODH log2FC (Gene 5625): -0.290
LGMN log2FC (Gene 5641): -0.066
PSEN1 log2FC (Gene 5663): 0.418
PSEN2 log2FC (Gene 5664): -0.458
PSMA2 log2FC (Gene 5683): 0.460
PSMA3 log2FC (Gene 5684): 0.270
PSMA4 log2FC (Gene 5685): 0.609
PSMA6 log2FC (Gene 5687): 0.200
PSMB1 log2FC (Gene 5689): 0.085
PSMB2 log2FC (Gene 5690): -0.547
PSMB4 log2FC (Gene 5692): 0.132
PSMB5 log2FC (Gene 5693): -0.298
PSMB6 log2FC (Gene 5694): -0.120
PSMB9 log2FC (Gene 5698): -0.203
PSMB10 log2FC (Gene 5699): -0.184
PSMC1 log2FC (Gene 5700): 0.172
PSMC2 log2FC (Gene 5701): 0.576
PSMC3 log2FC (Gene 5702): -0.176
PSMC5 log2FC (Gene 5705): -0.327
PSMC6 log2FC (Gene 5706): 0.776
PSMD1 log2FC (Gene 5707): 0.397
PSMD3 log2FC (Gene 5709): -0.109
PSMD4 log2FC (Gene 5710): -0.086
PSMD5 log2FC (Gene 5711): 0.388
PSMD7 log2FC (Gene 5713): 0.182
PSMD8 log2FC (Gene 5714): -0.132
PSMD9 log2FC (Gene 5715): -0.171
PSMD10 log2FC (Gene 5716): -0.293
PSMD11 log2FC (Gene 5717): -0.214
PSMD12 log2FC (Gene 5718): -0.582
PSME1 log2FC (Gene 5720): 0.322
PTEN log2FC (Gene 5728): 1.014
PTGFR log2FC (Gene 5737): -0.039
PTGIS log2FC (Gene 5740): 0.033
PTH log2FC (Gene 5741): -0.079
PTGS2 log2FC (Gene 5743): -0.151
PTK2 log2FC (Gene 5747): 0.157
PTPN6 log2FC (Gene 5777): 0.120
PTPRC log2FC (Gene 5788): -0.053
PTPRH log2FC (Gene 5794): 0.279
RAC1 log2FC (Gene 5879): -0.258
RAD9A log2FC (Gene 5883): 0.686
RAD21 log2FC (Gene 5885): 1.043
RAG1 log2FC (Gene 5896): 0.657
RALB log2FC (Gene 5899): 0.324
RARA log2FC (Gene 5914): -0.580
RARG log2FC (Gene 5916): -0.272
RASA1 log2FC (Gene 5921): 0.488
RASGRF2 log2FC (Gene 5924): -0.240
RB1 log2FC (Gene 5925): 0.746
RELA log2FC (Gene 5970): -0.454
DPF2 log2FC (Gene 5977): 0.303
REST log2FC (Gene 5978): 0.367
ROBO1 log2FC (Gene 6091): 0.128
ROBO2 log2FC (Gene 6092): -0.056
ROCK1 log2FC (Gene 6093): 0.615
RPS3A log2FC (Gene 6189): 0.669
RPS6 log2FC (Gene 6194): 0.357
RPS6KA1 log2FC (Gene 6195): -0.234
RPS6KA3 log2FC (Gene 6197): 0.412
RPS6KB1 log2FC (Gene 6198): 0.426
RPS27A log2FC (Gene 6233): 0.401
RTKN log2FC (Gene 6242): -0.208
SORT1 log2FC (Gene 6272): 0.261
S100A8 log2FC (Gene 6279): 0.469
S100B log2FC (Gene 6285): -0.122
SATB1 log2FC (Gene 6304): 0.589
SCT log2FC (Gene 6343): -0.095
CCL2 log2FC (Gene 6347): -0.179
CCL3 log2FC (Gene 6348): -0.223
CCL5 log2FC (Gene 6352): 0.088
CCL21 log2FC (Gene 6366): -0.170
CX3CL1 log2FC (Gene 6376): -0.563
CXCL12 log2FC (Gene 6387): -0.211
MAP2K4 log2FC (Gene 6416): 0.120
SET log2FC (Gene 6418): 0.225
SFRP1 log2FC (Gene 6422): 0.214
SFRP2 log2FC (Gene 6423): -0.093
SFRP4 log2FC (Gene 6424): 0.051
SFRP5 log2FC (Gene 6425): -0.042
ITSN1 log2FC (Gene 6453): 0.278
SHB log2FC (Gene 6461): -0.876
SHH log2FC (Gene 6469): -0.209
SIAH1 log2FC (Gene 6477): 0.248
SIAH2 log2FC (Gene 6478): -0.579
STIL log2FC (Gene 6491): 0.485
SIX1 log2FC (Gene 6495): -0.507
SKI log2FC (Gene 6497): -0.663
SLC9A1 log2FC (Gene 6548): -0.600
SLIT3 log2FC (Gene 6586): -0.286
SNAI2 log2FC (Gene 6591): 0.199
SMO log2FC (Gene 6608): -0.194
SMPD1 log2FC (Gene 6609): 0.257
SMPD2 log2FC (Gene 6610): -0.399
SIGLEC1 log2FC (Gene 6614): -0.350
SNAI1 log2FC (Gene 6615): -0.710
SNCB log2FC (Gene 6620): -0.626
SNCA log2FC (Gene 6622): -0.041
SOD2 log2FC (Gene 6648): 0.179
SON log2FC (Gene 6651): -0.111
SOX2 log2FC (Gene 6657): 0.298
SOX4 log2FC (Gene 6659): 0.216
SOX9 log2FC (Gene 6662): -2.381
SOX10 log2FC (Gene 6663): -0.095
SP100 log2FC (Gene 6672): 0.968
SPI1 log2FC (Gene 6688): -0.242
SPN log2FC (Gene 6693): -0.216
SRC log2FC (Gene 6714): -0.316
SRPK2 log2FC (Gene 6733): 0.850
SST log2FC (Gene 6750): 0.289
SSTR3 log2FC (Gene 6753): -0.375
STAR log2FC (Gene 6770): -0.189
STAT1 log2FC (Gene 6772): 0.445
STAT5A log2FC (Gene 6776): 0.569
STAT5B log2FC (Gene 6777): 0.093
STK4 log2FC (Gene 6789): 0.158
STK11 log2FC (Gene 6794): -0.165
STXBP1 log2FC (Gene 6812): -0.504
SUPV3L1 log2FC (Gene 6832): 0.440
ADAM17 log2FC (Gene 6868): 0.578
TAF9 log2FC (Gene 6880): 0.363
MAP3K7 log2FC (Gene 6885): 0.181
